Source: publication PMC8294059, “Identification and Immune Assessment of T Cell Epitopes in Five Plasmodium falciparum Blood Stage Antigens to Facilitate Vaccine Candidate Selection and Optimization” (Frontiers in Immunology, 2021)
Where a SMILES comes first, the peptide text is derived from it.

Legend:
Experiment in all cases: biochemical
Assay type in all cases: binding
[1] = molecular target: T1, HLA-DRB1*0101 (Homo sapiens, UniProt P01903+P01911, A100R/D57E/F55L/F60I/F76Y/I96L/L162R/M171V/P40L/Q125E/R42F/V115G/Y59C); conditions: binding inhibition assay; NB = non-binder (no dose-dependent inhibition); read-out: DRB1*0101 IC50
T1 construct: purchased
Method in brief: (§1)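 HLA-peptide complexes are captured with anti-HLA-DR antibody, and bound reference is quantified by europium-probe time-resolved fluorescence.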

[2] = molecular target: T2, HLA-DRB1*0401 (Homo sapiens, UniProt P01903+P01911, A100K/A169T/F76Y/I96L/K127E/L162R/M171V/N62H/P40V/Q125Y/R42H/S133A/S149N/S66Y/V115G/V209L/W38E); conditions: binding inhibition assay; NB = non-binder (no dose-dependent inhibition); read-out: DRB1*0401 IC50
T2 construct: purchased
Method in brief: as §1

[3] = molecular target: HLA-DRB1*0701 (Homo sapiens, UniProt P01903+P01911, A100R/A102G/A103Q/D57E/D86V/E43K/F76Y/K127E/L162R/M171V/P40G/Q125H/Q99D/R33Q/R42Y/R54Q/S133A/S66F/T210M/V115G/Y107V/Y59L/Y89S); conditions: binding inhibition assay; NB = non-binder (no dose-dependent inhibition); read-out: DRB1*0701 IC50
Method in brief: as §1

[4] = molecular target: HLA-DRB1*0801 (Homo sapiens, UniProt P01903+P01911, A100R/A103L/A169T/D86S/F76Y/H45Y/I96F/K41T/L162R/M171V/P40S/Q125H/Q178H/Q39Y/Q99D/R218S/R42G/S66Y/V115G/W38E); conditions: binding inhibition assay; NB = non-binder (no dose-dependent inhibition); read-out: DRB1*0801 IC50
Method in brief: as §1

[5] = molecular target: HLA-DRB1*1101 (Homo sapiens, UniProt P01903+P01911, A100R/A169T/A87E/I96F/K41T/L162R/M171V/P40S/Q125H/Q178H/Q39Y/Q99D/R42S/S66Y/T262R/V115G/W38E); conditions: binding inhibition assay; NB = non-binder (no dose-dependent inhibition); read-out: DRB1*1101 IC50
HLA-DRB1*1101, sequence (P01903 26-254 limits assumed, other chains not shown): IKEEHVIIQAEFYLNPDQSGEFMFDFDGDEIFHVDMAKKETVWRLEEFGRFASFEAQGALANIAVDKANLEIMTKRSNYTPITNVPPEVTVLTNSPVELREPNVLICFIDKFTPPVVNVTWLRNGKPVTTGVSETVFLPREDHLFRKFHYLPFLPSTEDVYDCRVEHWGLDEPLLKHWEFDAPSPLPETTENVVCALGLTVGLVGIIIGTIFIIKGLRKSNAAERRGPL
Method in brief: as §1

[6] = molecular target: HLA-DRB1*1301 (Homo sapiens, UniProt P01903+P01911, A100E/A169T/K41T/L162R/M171V/P40S/Q125H/Q178H/Q39Y/Q99D/R42S/S66N/T262R/W38E/Y61H); conditions: binding inhibition assay; NB = non-binder (no dose-dependent inhibition); read-out: DRB1*1301 IC50
Method in brief: as §1

[7] = molecular target: T3, HLA-DRB1*1501 (Homo sapiens, UniProt P01903+P01911); conditions: binding inhibition assay; NB = non-binder (no dose-dependent inhibition); read-out: DRB1*1501 IC50
T3 construct: purchased
Method in brief: as §1

Row | SMILES | IC50 [1] [nM] | IC50 [2] [µM] | IC50 [3] [µM] | IC50 [4] [µM] | IC50 [5] [µM] | IC50 [6] [µM] | IC50 [7] [nM]
1 | CC[C@H](C)[C@H](NC(=O)[C@H](CCCCN)NC(=O)[C@H](CCC(=O)O)NC(=O)[C@@H](NC(=O)[C@H](CO)NC(=O)[C@H](CC(=O)O)NC(=O)[C@H](CCCNC(=N)N)NC(=O)[C@H](CC(N)=O)NC(=O)[C@H](CC(C)C)NC(=O)[C@@H](NC(=O)[C@@H](NC(=O)[C@H](Cc1ccc(O)cc1)NC(=O)[C@@H](NC(=O)[C@H](Cc1ccc(O)cc1)NC(=O)[C@H](CCCCN)NC(=O)[C@H](CC(N)=O)NC(=O)[C@H](CC(C)C)NC(=O)[C@H](Cc1ccc(O)cc1)NC(=O)[C@H](C)NC(=O)[C@H](Cc1ccc(O)cc1)NC(=O)[C@H](CC(=O)O)NC(C)=O)C(C)C)[C@@H](C)O)[C@@H](C)CC)[C@@H](C)O)C(=O)N[C@@H](CCCCN)C(=O)N[C@H](C(=O)N[C@@H](Cc1ccccc1)C(N)=O)[C@@H](C)O [RIPR_002] (Ac-DYAYLNKYVYTILNRDSTEKIKTF-NH2) | 152 | 16.7 | 6.91 | 16.1 | 1.47 | 50.4 | 201
2 | CC(=O)N[C@H](C(=O)N[C@@H](CO)C(=O)N[C@@H](CS)C(=O)N[C@@H](Cc1ccc(O)cc1)C(=O)N[C@@H](CCCNC(=N)N)C(=O)N[C@H](C(=O)N[C@@H](CO)C(=O)N[C@@H](Cc1ccccc1)C(=O)N[C@@H](CC(N)=O)C(=O)N[C@@H](CC(C)C)C(=O)N[C@@H](CC(N)=O)C(=O)N[C@@H](CCCCN)C(=O)N[C@@H](CC(C)C)C(=O)N[C@@H](CCCCN)C(=O)N[C@@H](Cc1ccc(O)cc1)C(=O)N[C@H](C(=O)N[C@H](C(=O)N[C@@H](CCC(=O)O)C(=O)N[C@@H](CO)C(N)=O)[C@@H](C)O)C(C)C)C(C)C)C(C)C [RIPR_006] (Ac-VSCYRVSFNLNKLKYVTES-NH2) | 446 | 8.78 | 0.952 | 11.3 | 9.32 | 11.5 | 6960
3 | CC[C@H](C)[C@H](NC(=O)[C@H](CC(N)=O)NC(=O)[C@H](CCC(N)=O)NC(=O)[C@H](CC(N)=O)NC(=O)[C@H](CC(N)=O)NC(=O)[C@H](Cc1ccccc1)NC(=O)[C@@H](NC(=O)[C@H](CS)NC(=O)[C@H](CC(C)C)NC(=O)[C@H](Cc1ccc(O)cc1)NC(=O)[C@H](CC(=O)O)NC(=O)[C@@H](N)Cc1ccc(O)cc1)C(C)C)C(=O)N[C@H](C(=O)N[C@@H](CO)C(=O)N[C@@H](CC(=O)O)C(=O)N[C@@H](CCCCN)C(=O)N[C@@H](CC(N)=O)C(N)=O)[C@@H](C)O [RIPR_007] (H-YDYLCVFNNQNITSDKN-NH2) | 2780 | 4.6 | 3.05 | 99 | 8.65 | 9.26 | 165
4 | CC[C@H](C)[C@H](NC(=O)[C@H](CCC(=O)O)NC(=O)[C@@H](NC(=O)[C@H](CCCCN)NC(=O)[C@H](CCCCN)NC(C)=O)C(C)C)C(=O)N[C@@H](Cc1ccccc1)C(=O)N[C@@H](CCCNC(=N)N)C(=O)N[C@@H](CO)C(=O)N[C@@H](CCCNC(=N)N)C(=O)N[C@@H](Cc1ccccc1)C(=O)N[C@@H](CO)C(=O)N[C@@H](CO)C(=O)N[C@@H](CCCCN)C(=O)N[C@@H](CC(C)C)C(=O)N[C@@H](CCC(N)=O)C(=O)N[C@@H](CS)C(=O)N[C@@H](CCC(N)=O)C(N)=O [RIPR_011] (Ac-KKVEIFRSRFSSKLQCQ-NH2) | 1360 | 22 | 13.7 | 65.6 | 9.22 | 9.43 | 7
5 | CC[C@H](C)[C@H](NC(=O)[C@H](CS)NC(=O)[C@H](CCC(=O)O)NC(=O)CNC(=O)[C@H](CCCNC(=N)N)NC(=O)[C@H](CO)NC(=O)[C@H](CO)NC(=O)[C@H](CCCNC(=N)N)NC(=O)[C@H](Cc1ccc(O)cc1)NC(=O)[C@H](Cc1ccc(O)cc1)NC(=O)[C@H](Cc1c[nH]cn1)NC(=O)[C@H](CCC(=O)O)NC(=O)[C@H](CCCCN)NC(C)=O)C(=O)N[C@@H](CC(C)C)C(=O)N[C@@H](CC(N)=O)C(=O)N[C@@H](CC(=O)O)C(N)=O [RIPR_017] (Ac-KEHYYRSSRGECILND-NH2) | 25 | > 100 | 0.489 | 6.44 | 1.38 | > 100 | 58200
